One assay has as its target T1, Helios (Homo sapiens, UniProt Q96SW2+Q9UKS7).
T1 construct: fluorescently labelled antibodies against Helios and Ikaros; endogenous in cells; host or cells: Jurkat cells
Put plainly: Helios Cellular Degradation Assay (flow cytometry, Helios-PE antibody staining, 72 h). Format: cell-based. The note with it: Jurkat cells, 72 h incubation, flow cytometry; for Dmax: Jurkat, read-out: Helios Dmax. The method, boiled down:
(§1)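 Flow cytometry of fixed, permeabilized Jurkat cells stained with anti-Helios-PE and anti-Ikaros-Alexa488 (1 h, room temperature) measured remaining protein. Treatment lasted 72 h at 37 °C, 5% CO2, at 80,000 cells/well in RPMI with 10% FBS.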

The next assay addresses T2, Ikaros (Homo sapiens, UniProt Q13422).
T2 construct: fluorescently labelled antibodies against Helios and Ikaros; endogenous in cells; host or cells: Jurkat cells
Put plainly: Helios Cellular Degradation Assay, Ikaros readout (flow cytometry, Ikaros-Alexa488 antibody staining, 72 h). The conditions noted are these: Jurkat cells, 72 h incubation, flow cytometry; for Dmax: Jurkat, read-out: Ikaros Dmax. It is filed as cell-based. The method, boiled down:
as §1

“And” between values parts separate entries of the source, which are not always exact repeats. Equal entries are not always repeated. Bounds are passed on as bounds.

T1 sequence (Q9UKS7 whole entry): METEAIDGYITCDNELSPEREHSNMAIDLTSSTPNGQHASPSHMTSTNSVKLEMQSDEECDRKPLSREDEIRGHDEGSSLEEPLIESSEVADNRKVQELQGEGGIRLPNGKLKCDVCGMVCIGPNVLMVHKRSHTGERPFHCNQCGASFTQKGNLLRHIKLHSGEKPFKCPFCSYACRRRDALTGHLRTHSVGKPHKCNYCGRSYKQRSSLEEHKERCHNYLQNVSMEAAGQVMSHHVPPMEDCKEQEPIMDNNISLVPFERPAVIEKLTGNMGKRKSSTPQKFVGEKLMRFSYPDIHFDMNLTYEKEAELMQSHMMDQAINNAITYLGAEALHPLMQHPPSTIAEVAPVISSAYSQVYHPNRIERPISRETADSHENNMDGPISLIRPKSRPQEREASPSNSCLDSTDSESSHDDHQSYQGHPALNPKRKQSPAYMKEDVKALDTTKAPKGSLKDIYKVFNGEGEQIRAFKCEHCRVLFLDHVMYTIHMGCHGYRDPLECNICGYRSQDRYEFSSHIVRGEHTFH
T1 sequence (Q96SW2 whole entry): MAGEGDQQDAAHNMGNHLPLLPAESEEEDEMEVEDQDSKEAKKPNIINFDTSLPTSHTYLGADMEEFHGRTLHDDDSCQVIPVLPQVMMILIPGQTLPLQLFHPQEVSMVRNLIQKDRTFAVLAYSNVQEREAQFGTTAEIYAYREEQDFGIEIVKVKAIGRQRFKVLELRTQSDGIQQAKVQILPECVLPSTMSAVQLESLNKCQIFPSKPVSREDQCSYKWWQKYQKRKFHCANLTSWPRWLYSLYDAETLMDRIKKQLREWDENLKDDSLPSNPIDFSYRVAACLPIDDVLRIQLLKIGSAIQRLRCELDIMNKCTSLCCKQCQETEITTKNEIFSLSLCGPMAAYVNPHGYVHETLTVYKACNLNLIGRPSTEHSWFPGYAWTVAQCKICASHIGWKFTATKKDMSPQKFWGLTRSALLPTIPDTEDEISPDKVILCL
T1 sequence (Q16531 whole entry partner): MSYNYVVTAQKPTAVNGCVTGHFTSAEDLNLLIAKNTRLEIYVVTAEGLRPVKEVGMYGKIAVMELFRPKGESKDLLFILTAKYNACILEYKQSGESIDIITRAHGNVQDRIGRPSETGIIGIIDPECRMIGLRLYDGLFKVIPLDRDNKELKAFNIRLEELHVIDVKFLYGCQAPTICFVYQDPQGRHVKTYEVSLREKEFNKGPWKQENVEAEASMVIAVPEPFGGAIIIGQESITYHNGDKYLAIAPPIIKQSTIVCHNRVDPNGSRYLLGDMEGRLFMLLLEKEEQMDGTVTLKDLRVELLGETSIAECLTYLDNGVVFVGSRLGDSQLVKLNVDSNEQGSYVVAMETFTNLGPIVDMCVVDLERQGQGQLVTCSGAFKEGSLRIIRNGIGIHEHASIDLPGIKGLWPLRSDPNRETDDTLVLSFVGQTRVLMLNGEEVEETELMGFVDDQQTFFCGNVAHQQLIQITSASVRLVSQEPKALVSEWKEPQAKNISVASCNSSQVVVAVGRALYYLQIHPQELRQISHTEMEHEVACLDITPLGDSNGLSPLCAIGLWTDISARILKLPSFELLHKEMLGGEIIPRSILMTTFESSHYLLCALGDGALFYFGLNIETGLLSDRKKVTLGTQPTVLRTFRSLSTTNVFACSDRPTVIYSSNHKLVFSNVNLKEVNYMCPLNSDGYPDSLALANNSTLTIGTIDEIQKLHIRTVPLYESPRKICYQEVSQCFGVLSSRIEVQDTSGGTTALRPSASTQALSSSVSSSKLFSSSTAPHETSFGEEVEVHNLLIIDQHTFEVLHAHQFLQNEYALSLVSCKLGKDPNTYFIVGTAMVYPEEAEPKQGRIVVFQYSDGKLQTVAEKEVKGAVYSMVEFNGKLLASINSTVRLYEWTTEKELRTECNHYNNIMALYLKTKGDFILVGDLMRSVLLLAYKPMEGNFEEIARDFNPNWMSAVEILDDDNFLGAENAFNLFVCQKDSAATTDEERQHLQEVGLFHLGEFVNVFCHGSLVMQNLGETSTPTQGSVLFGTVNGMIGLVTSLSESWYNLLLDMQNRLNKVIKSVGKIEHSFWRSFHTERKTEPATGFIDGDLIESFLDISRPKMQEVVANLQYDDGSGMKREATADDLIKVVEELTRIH
T2 sequence (Q96SW2 whole entry partner): as the sequence (Q96SW2 whole entry) above
T2 sequence (Q16531 whole entry partner): as the sequence (Q16531 whole entry partner) above
T2 sequence (Q13422 whole entry): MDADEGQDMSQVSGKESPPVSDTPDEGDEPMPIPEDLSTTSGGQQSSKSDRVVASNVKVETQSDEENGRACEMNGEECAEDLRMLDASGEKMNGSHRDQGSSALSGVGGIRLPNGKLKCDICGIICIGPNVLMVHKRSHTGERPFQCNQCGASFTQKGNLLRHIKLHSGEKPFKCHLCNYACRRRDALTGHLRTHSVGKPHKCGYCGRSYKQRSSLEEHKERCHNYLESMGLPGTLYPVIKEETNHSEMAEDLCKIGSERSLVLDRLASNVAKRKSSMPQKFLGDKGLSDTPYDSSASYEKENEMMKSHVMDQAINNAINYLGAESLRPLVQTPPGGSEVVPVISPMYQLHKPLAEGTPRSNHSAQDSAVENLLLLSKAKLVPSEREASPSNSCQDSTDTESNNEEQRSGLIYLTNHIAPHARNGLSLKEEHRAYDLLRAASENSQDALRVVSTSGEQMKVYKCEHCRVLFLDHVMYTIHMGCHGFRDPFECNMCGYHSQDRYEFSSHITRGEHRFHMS

As for `O=C1CCC(N2Cc3cc(-c4cc(CN5CCC5c5ccccc5)c(Cl)cn4)ccc3C2=O)C(=O)N1` (stereo not shown) [Example 187, 3-(5-(5-chloro-4-((2-phenylazetidin-1-yl)methyl)pyridin-2-yl)-1-oxoisoindolin-2-yl)piperidine-2,6-dione], on Helios, half-maximal degradation (DC50) was put at 24 nM and the Dmax (usually the largest share of the target that was removed) stood at 84%. Besides, on Ikaros, the DC50 (usually the concentration at which degradation of the target reaches its halfway point) was more than 10000 nM and the Dmax came to 6%.
On to `O=C1CCC(N2Cc3cc(-c4cc(CN5CC(c6ccccc6)C5)c(F)cn4)ccc3C2=O)C(=O)N1` (stereo not shown) [Example 188, 3-(5-(5-fluoro-4-((3-phenylazetidin-1-yl)methyl)pyridin-2-yl)-1-oxoisoindolin-2-yl) piperidine-2,6-dione], for which it took 27 nM to reach half-maximal degradation on Helios (DC50). In addition, the values for the Dmax at Helios and on Ikaros were 76% and 16%, respectively.
Consider `O=C1CCC(N2Cc3cc(-c4cc(CN5CCC5c5ccccc5)c(F)cn4)ccc3C2=O)C(=O)N1` (stereo not shown) [Example 189, 3-(5-(5-fluoro-4-((2-phenylazetidin-1-yl)methyl)pyridin-2-yl)-1-oxoisoindolin-2-yl)piperidine-2,6-dione], for which, at Helios, it took 11 nM to reach half-maximal degradation (DC50) and the greatest degradation seen (Dmax) came out at 80%. Besides, on Ikaros, the DC50 was more than 10000 nM and the greatest degradation seen (Dmax) worked out at 16%.
`O=C1CCC(N2Cc3cc(-c4cc(CN5CC(c6cccnc6)C5)c(F)cn4)ccc3C2=O)C(=O)N1` (stereo not shown) [Example 190, 3-(5-(5-fluoro-4-((3-(pyridin-3-yl)azetidin-1-yl)methyl)pyridin-2-yl)-1-oxoisoindolin-2-yl) piperidine-2,6-dione]: on Helios, the half-maximal degradation concentration (DC50) is 76 nM and the Dmax turned out to be 71%. Further, on Ikaros, the DC50 was more than 10000 nM and the maximal degradation (Dmax) is 16%.
For the compound `O=C1CCC(N2Cc3cc(-c4nccc(CN5CC(c6ccccc6)C5)c4F)ccc3C2=O)C(=O)N1` (stereo not shown) [Example 191, 3-(5-(3-fluoro-4-((3-phenylazetidin-1-yl)methyl)pyridin-2-yl)-1-oxoisoindolin-2-yl) piperidine-2,6-dione], at Helios, the 50% degradation concentration (DC50) was found to be 3200 nM and the maximal degradation (Dmax) was 52%. On Ikaros, the DC50 is more than 10000 nM and the Dmax worked out at 3%.
In the case of `O=C1CCC(N2Cc3cc(-c4nccc(CN5CC(c6cccnc6)C5)c4F)ccc3C2=O)C(=O)N1` (stereo not shown) [Example 192, 3-(5-(3-fluoro-4-((3-(pyridin-3-yl)azetidin-1-yl)methyl)pyridin-2-yl)-1-oxoisoindolin-2-yl)piperidine-2,6-dione], at Helios, the half-maximal degradation concentration (DC50) was more than 10000 nM and the Dmax was determined as 41%. On Ikaros, the DC50 is more than 10000 nM and the greatest degradation seen (Dmax) came out at 16%.
Regarding `O=C1CCC(N2Cc3cc(-c4nccc(CN5CCC5c5ccccc5)c4F)ccc3C2=O)C(=O)N1` (stereo not shown) [Example 193, 3-(5-(3-fluoro-4-((2-phenylazetidin-1-yl)methyl)pyridin-2-yl)-1-oxoisoindolin-2-yl) piperidine-2,6-dione], the DC50 on Helios was 120 nM; at Ikaros, more than 10000 nM. In addition, the Dmax on Helios was determined as 60%; at Ikaros it was 14%.
`Cc1cc2c(cc1-c1cc(CN(C)C)ccn1)CN(C1CCC(=O)NC1=O)C2=O` (stereo not shown) [Example 194, 3-(5-(4-((dimethylamino)methyl)pyridin-2-yl)-6-methyl-1-oxoisoindolin-2-yl)piperidine-2,6-dione]: on Helios, the DC50 was more than 10000 nM, the “Helios Dmax” value amounted to 5.2% and the Dmax was found to be 5.16%. Also, at Ikaros, the DC50 was more than 10000 nM; the “Ikaros Dmax” value was 0.04% and 3%.
For `COC1(C)CN(Cc2ccnc(-c3ccc4c(c3)CN(C3CCC(=O)NC3=O)C4=O)c2)C1` (stereo not shown) [Example 196, 3-(5-(4-((3-methoxy-3-methylazetidin-1-yl)methyl)pyridin-2-yl)-1-oxoisoindolin-2-yl)piperidine-2,6-dione], on Helios, the 50% degradation concentration (DC50) was 45 nM and the Dmax was 78%. Further, on Ikaros, the DC50 was more than 10000 nM and the Dmax was found to be 7%.
Regarding `COC1CN(Cc2ccnc(-c3ccc4c(c3)CN(C3CCC(=O)NC3=O)C4=O)c2)C1` (stereo not shown) [Example 197, 3-(5-(4-((3-methoxyazetidin-1-yl)methyl)pyridin-2-yl)-1-oxoisoindolin-2-yl)piperidine-2,6-dione], at Helios, half-maximal degradation (DC50) was put at 42 nM and the Dmax was 75%. Also, on Ikaros, the 50% degradation concentration (DC50) was more than 10000 nM and the maximal degradation (Dmax) came out at 20%.
In the case of `CCOC1CN(Cc2ccnc(-c3ccc4c(c3)CN(C3CCC(=O)NC3=O)C4=O)c2)C1` (stereo not shown) [Example 198, 3-(5-(4-((3-ethoxyazetidin-1-yl)methyl)pyridin-2-yl)-1-oxoisoindolin-2-yl) piperidine-2,6-dione], at Helios, the 50% degradation concentration (DC50) was 42 nM and the Dmax is 75%. Moreover, on Ikaros, the DC50 was more than 10000 nM and the Dmax is 18%.
As to `Cc1ccc(C2CCN(Cc3ccnc(-c4ccc5c(c4)CN(C4CCC(=O)NC4=O)C5=O)c3)CC2)cc1` (stereo not shown) [Example 199, 3-(1-oxo-5-(4-((4-(p-tolyl)piperidin-1-yl)methyl)pyridin-2-yl)isoindolin-2-yl)piperidine-2,6-dione], at Helios, the 50% degradation concentration (DC50) was 130 nM and the Dmax was 60%. Moreover, on Ikaros, the half-maximal degradation concentration (DC50) is more than 10000 nM and the Dmax worked out at 3%.
`CN(C)C(=O)C1CN(Cc2ccnc(-c3ccc4c(c3)CN(C3CCC(=O)NC3=O)C4=O)c2)C1` (stereo not shown) [Example 202, 1-((2-(2-(2,6-dioxopiperidin-3-yl)-1-oxoisoindolin-5-yl)pyridin-4-yl)methyl)-N,N-dimethylazetidine-3-carboxamide]: at Helios, the half-maximal degradation concentration (DC50) came to 190 nM and the Dmax was 69%. In addition, on Ikaros, the half-maximal degradation concentration (DC50) is more than 10000 nM and the greatest degradation seen (Dmax) is 22%.
Regarding `O=C1CCC(N2Cc3cc(-c4cc(CN5CC(c6cccnc6)C5)ccn4)ccc3C2=O)C(=O)N1` (stereo not shown) [Example 203, 3-(1-oxo-5-(4-((3-(pyridin-3-yl)azetidin-1-yl)methyl)pyridin-2-yl)isoindolin-2-yl)piperidine-2,6-dione], the values for the DC50 at Helios and at Ikaros were 440 nM and more than 10000 nM, respectively. The Dmax at Helios was 69%; at Ikaros it was 20%.
Turning to `NC(=O)C1CCN1Cc1ccnc(-c2ccc3c(c2)CN(C2CCC(=O)NC2=O)C3=O)c1` (stereo not shown) [Example 206, 1-((2-(2-(2,6-dioxopiperidin-3-yl)-1-oxoisoindolin-5-yl)pyridin-4-yl)methyl)azetidine-2-carboxamide], at Helios, the DC50 was determined as 740 nM and the Dmax came out at 66%. For the same compound, at Ikaros, the DC50 was more than 10000 nM and the Dmax worked out at 9%.
Regarding `O=C1CCC(N2Cc3c(ccc(-c4cc(CN5CC(c6ccccc6)C5)ccn4)c3F)C2=O)C(=O)N1` (stereo not shown) [Example 208, 3-(4-Fluoro-1-oxo-5-(4-((3-phenylazetidin-1-yl)methyl)pyridin-2-yl)isoindolin-2-yl)piperidine-2,6-dione], at Helios, the DC50 came out at 3 nM and the greatest degradation seen (Dmax) was found to be 88%. For the same compound, at Ikaros, the DC50 was more than 10000 nM and the greatest degradation seen (Dmax) worked out at 13%.
